Test [1] deals with HEK-293T cells. The test can be described thus: Cytotoxicity in HEK-293T cells (Cell Titer Glo). Type of test: cell-based. To be noted: Homo sapiens, read-out: IC50 for cell growth inhibition. On the procedure: For the cytotoxicity experiments, cells were aliquoted into black 96-well plates with a clear bottom (Corning 3603), grown, treated with the inhibitors, and subjected to the Cell Titer Glo cell viability assay (Promega) as previously described.[33] All experiments were performed in triplicate.
For orientation: Cellular ATP, detected with luciferase, serves as a proxy for viable cell number.

Test [2] deals with D135 ribozyme. In words: HTS / dose–response intron activity assay (fluorescently labeled substrate, D135 ribozyme). In kind it is biochemical, Saccharomyces cerevisiae. As to conditions: 10 concentrations, highest 100 μM, 1:3 serial dilution. The method, then:
The RNA oligonucleotide substrate for HTS, containing the last 17 nucleotides of the native 5′-exon and the first two nucleotides of the ai5γ intron,[33] was synthesized on a MerMade 12 RNA-DNA synthesizer (BioAutomation) using TBDMS RNA phosphoramidites (TxBio), aminomodifier C6dT, and Black Hole Quencher 2 CPG (Glen Research). For base deprotection, the oligonucleotide was treated with 30% ammonium hydroxide (JT Baker) for 24 h at RT. The 2’–OH deprotection and oligonucleotide purification were carried out as described.[57],[58] Fluorescent labeling of the substrate with the NHS ester of AlexaFluor 555 was carried out as described.[33]
HTS was carried out by CRL using the fluorescently labeled substrate, unlabeled D135 ribozyme (see above), and a proprietary library of ∼1,50,000 compounds using assay conditions previously described,[33] with the following adaptations. The D135 ribozyme (20 nM final concentration) was first prefolded in a buffer of 50 mM MOPS, pH 7.5, 50 mM MgCl2, and 500 mM KCl at 37 °C for 30 min. Library compounds were then added at 12.5 μM final concentration followed by addition of the substrate (to 15 nM final concentration), and the reaction mixtures were incubated at 37 °C for 40 min. Reactions were was quenched by addition of urea (2.67 M final) and analyzed as described. […]

Test [3] has as its target ai5γ group II intron. In words: Radioanalytic in vitro splicing assay, splicing inhibition constants. In kind it is biochemical, Saccharomyces cerevisiae. To be noted: for improvement of inhibitory activity (Ki) relative to compound 3: vs compound 3. The method, then:
Internally ^32P-labeled ai5γ intron RNA with short exons[54] was in vitro transcribed in the presence of ^32P-α-UTP using T7 RNA polymerase and purified on a 5% denaturing polyacrylamide gel as described.[55] Large-scale transcription of the […] ribozyme, utilized for HTS, was carried out as previously described.[56] Splicing inhibition constants were determined as previously described[33],[34] with the following change in the experimental procedure: reactions were carried out in a buffer of 50 mM MOPS pH 7.5, 100 mM MgCl2, and 500 mM KCl at 42 °C. Aliquots of the reaction mixture were withdrawn at different time points, quenched, and analyzed on a 5% denaturing polyacrylamide gel as previously described.[55] Inhibition constants were determined as previously described.[33],[34] Experiments were performed twice to ensure reproducibility. Data represent average ± s.e.m.

Test [4] relates to C. parapsilosis. In words: MIC determination for C. parapsilosis (CLSI M27-A3). Type of test: cell-based, Candida parapsilosis. As to conditions: for MIC C. parapsilosis: Supplementary table 1; for MIC: Lodderomyces parapsilosis. The method, then: C. parapsilosis [strain American Type Culture Collection (ATCC) 22019] was purchased from ATCC and cultured according to the manufacturer’s instructions. S. cerevisiae wild-type (NP40-36a) and mtDNA intronless (XPM46) strains were a gift from Dr. Thomas Fox (Dept. of Molecular Biology and Genetics, Cornell University).[44] MICs for C. parapsilosis were determined as previously described[33] according to the guidelines from the protocol M27-A3 from the Clinical and Laboratory Standards Institute (CLSI).[59] All experiments were performed in triplicate.

Test [5] deals with WT S. cerevisiae strain. The test can be described thus: Inhibition of S. cerevisiae growth, WT strain. In kind it is cell-based, Saccharomyces cerevisiae. On the procedure: (§1) C. parapsilosis [strain American Type Culture Collection (ATCC) 22019] was purchased from ATCC and cultured according to the manufacturer’s instructions. S. cerevisiae wild-type (NP40-36a) and mtDNA intronless (XPM46) strains were a gift from Dr. Thomas Fox (Dept. of Molecular Biology and Genetics, Cornell University).[44]
(§2) Reduction of yeast growth in the presence of inhibitor molecules was assayed either in liquid YPD media (BD Bacto Yeast Extract, BD Bacto Peptone, 2% glucose) or in YPG media (BD Bacto Yeast Extract, BD Bacto Peptone, 3% glycerol), as previously described[33],[34],[59] with the following adaptations. Yeast cultures were grown for 24 h in YPD medium and for […] in YPG medium. All experiments were performed in triplicate to ensure reproducibility.

For test [6], the system named is COX1 intronless S. cerevisiae strain. The test can be described thus: Inhibition of S. cerevisiae growth, COX1 intronless strain. In kind it is cell-based, Saccharomyces cerevisiae. The method, then: as §1, §2
Test [7] relates to C. parapsilosis COX1 precursor mRNA splicing. In words: In cellulo analysis of group II intron splicing by qRT-PCR. Type of test: cell-based, Candida parapsilosis. As to conditions: compound 64 μg/mL, PGK1 as standard. On the procedure: C. parapsilosis (ATCC: 22019) growth and harvest was performed essentially as described[33] with the following modifications. Compounds dissolved in DMSO were added to individual cultures to a final concentration of 64 μg/mL. Total RNA was isolated using an E.Z.N.A Fungal RNA Mini Kit (Omega Bio-tek) according to the manufacturer’s protocol. The RNA was eluted in 50 μL of a 1:100 mixture of SUPERaseIn RNase inhibitor (Thermo Fisher): MOPS-EDTA (ME) buffer [10 mM MOPS (pH 6.5), 0.1 mM Na-EDTA (pH 8.5)] followed by DNase treatment with RQ1 DNase (Promega) for 30 min at 37 °C. Then, the reaction was mixed with 7 μL of 3 M NaOAc and precipitated with 80% EtOH at –20 °C. The recovered RNA was resuspended in 30 μL of 1:100 mixture of SUPERaseIn RNase inhibitor/ME buffer. Next, 200 ng of Random Hexamer Primers (Thermo Fisher) was annealed to 10 ng of RNA in 11 μL at 65 °C for 5 min. The annealing reaction mixture was then cooled to RT, followed by the addition of 9 μL of a SuperScript III (Thermo Fisher) master mix: 1X First Strand Synthesis Buffer, 0.5 mM dNTPs (NEB: N0447S), 5 mM DTT, 10U SUPERaseIn RNase inhibitor, and 100 U SuperScript III. Manufacturer reverse transcription conditions were used, followed by an inactivation step at 75 °C for 15 min. After reverse transcription, RNA was degraded by adding 1.5 μL of a 1:1:1 mixture of RNase H (NEB), RNase A (NEB), and RNase T1 (Thermo Fisher) and incubating at 37 °C for 30 min. The cDNA was then purified using AMPure beads (Beckman Coulter) at a 1.8× bead-to-sample ratio according to the manufacturer’s protocol. Purified cDNA was eluted in 30 μL of nuclease-free water. Real-time PCR quantification of cDNA and subsequent determination of the relative levels of PGK1, COX1 (total), and COX1 (unspliced) from different conditions were performed in duplicate with three independent samples as previously described.[33]
(In general: In qPCR the cycle at which signal appears reflects the starting amount.)

Test [8] has as its target ai5γ group II intron. Details: method as in PMID 30323219. To be noted: for comparison; read-out: Ki of previously published inhibitors; cited from earlier work.
Test [9] concerns C. parapsilosis COX1 precursor mRNA splicing. Details: method as in PMID 30323219. To be noted: for comparison; cited from earlier work.
The mark [10] stands for this setting: Figure 3, 100 mM MgCl2, 500 mM KCl, 42 °C, read-out: Ki for the in vitro splicing of the ai5γ intron.
The mark [11] stands for this setting: Supplementary table 1, read-out: Ki ai5γ intron.

Data on 21 compounds can be found in PMC11851433, “Novel Quinazoline Derivatives Inhibit Splicing of Fungal Group II Introns” (ACS Chemical Biology, 2025).

In brackets after ≈: the same amount, converted by molar mass. Where two headings read alike, the source gives them in different places.

For `C[C@@H]1[C@H](O)[C@@H](C)/C=C/C=C/C=C/C=C/C=C/C=C/C=C/[C@H](O[C@@H]2O[C@H](C)[C@@H](O)[C@H](N)[C@@H]2O)C[C@@H]2O[C@](O)(C[C@@H](O)C[C@@H](O)[C@H](O)CC[C@@H](O)C[C@@H](O)CC(=O)O[C@H]1C)C[C@H](O)[C@H]2C(=O)O` [amphotericin B, reference compound], the IC50 in test [1] was 2.6 ± 0.2 µg/mL (≈ 2.81 µM).
Compound `COc1ccc(Nc2nc(-c3ccccn3)nc3ccccc23)cc1` [compound 1] gave an IC50 in test [2] of 3 µM. Moreover, the Ki in test [3] (setting [10]) was 27 ± 6 µM.
Consider `COc1cccc(CNc2nc(-c3ccccn3)nc3ccccc23)c1` [compound 2], for which, in [3] (setting [11]), the Ki was found to be 55 ± 19 µM. The compound also returned an MIC C. parapsilosis in test [4] of over 128 µg/mL.
For the compound `c1ccc(CNc2nc(-c3ccccn3)nc3ccccc23)cc1` [compound 3], the Ki in test [3] (setting [11]) is 77 ± 25 µM.
As to `COc1ccc(Nc2ncnc3ccccc23)cc1` [compound 4], the Ki in test [3] (setting [11]) is over 100 µM.
In the case of `COc1cccc(CNc2ncnc3ccccc23)c1` [compound 5], in test [3] (setting [11]), the Ki was over 100 µM. In test [4], this compound showed an MIC C. parapsilosis of 16 µg/mL (≈ 60.3 µM).
As to `c1ccc(Nc2ncnc3ccccc23)cc1` [compound 6], the inhibitory constant (Ki) in test [3] (setting [11]) is over 100 µM.
Same read-out and setting: under `c1ccc(CNc2ncnc3ccccc23)cc1` [compound 7] stands over 100 µM; under `Nc1nc(-c2ccccn2)nc2ccccc12` [compound 8], over 100 µM.
Consider `c1ccc(-c2ncc3ccccc3n2)nc1` [compound 9], for which the Ki in test [3] (setting [11]) is over 100 µM.
As to `CC(C)(C)c1ccc(Nc2nc(-c3ccccn3)nc3ccccc23)cc1` [compound 10], the inhibitory constant (Ki) in test [3] (setting [11]) stood at 11 ± 2 µM. Further, the minimal inhibitory concentration (MIC) in test [4] lay within 2 to 8 µg/mL (≈ 5.64 to 22.6 µM).
For `CC(C)(C)c1ccc(Nc2nc(-c3ccncc3)nc3ccccc23)cc1` [compound 11], in test [3], the “inhibitory activity in the splicing assay (in words)” value is given as “completely abolishes activity”. In [3] (setting [11]), the inhibitory constant (Ki) was over 100 µM.
For the compound `c1ccc(-c2nc(Nc3ccc4c(c3)OCO4)c3ccccc3n2)nc1` [compound 12], the Ki in test [3] (setting [11]) was determined as 11 ± 2 µM. In addition, the “increase in inhibitory activity relative to compound 1” value in test [3] (vs compound 1) worked out at 3 fold.
Turning to `c1ccc(-c2nc(N3Cc4ccccc4C3)c3ccccc3n2)nc1` [compound 14], the Ki in [3] (setting [11]) is 7.6 ± 1.7 µM. Besides, in [5] (WT more strongly inhibited than intronless strain), the “growth inhibition of WT vs COX1 intronless S. cerevisiae strain” value was “eight-fold”. Further, in [5] (WT strain), the “MIC S. cerevisiae WT strain” value was 4 µg/mL (≈ 12.3 µM). In addition, in [6], the “MIC S. cerevisiae intronless strain” value was 32 µg/mL (≈ 98.6 µM).
Regarding `CC(C)(C)c1cccc(CNc2nc(-c3ccccn3)nc3ccccc23)c1` [compound 15], the Ki in test [3] (setting [11]) stood at 6.4 ± 1.9 µM. Besides, in test [3], the “improvement of inhibitory activity (Ki) relative to compound 3” value was “more than 10 fold”.
`FC(F)(F)c1cccc(CNc2nc(-c3ccccn3)nc3ccccc23)c1` [compound 16]: in [3] (setting [11]), the inhibitory constant (Ki) was found to be 5.6 ± 0.6 µM. Further, the “improvement of inhibitory activity (Ki) relative to compound 3” value in test [3] is recorded as “more than 10 fold”. Besides, in test [4], the “MIC in C. parapsilosis” value worked out at 4 µg/mL (≈ 10.5 µM). For the same compound, the MIC was 2 to 8 µg/mL (≈ 5.26 to 21 µM) in test [4], 16 µg/mL (≈ 42.1 µM) in test [5] (Saccharomyces cerevisiae) and 64 µg/mL (≈ 168 µM) in [6] (Saccharomyces cerevisiae). Also, in test [7], the “effect on splicing of C. parapsilosis COX1 (unspliced relative to total COX1 mRNA)” value (“effect … (unspliced relative to total COX1 mRNA)” for short) is “moderate defects”. The IC50 in test [1] was 5.6 ± 0.1 µg/mL (≈ 14.7 µM).
`Clc1cccc(CNc2nc(-c3ccccn3)nc3ccccc23)c1` [compound 17]: the Ki in [3] (setting [11]) stood at 2.6 ± 0.5 µM. Further, the “improvement of inhibitory activity (Ki) relative to compound 3” value in [3] came to 30 fold. Further, in test [4], the “MIC in C. parapsilosis” value was 2 µg/mL (≈ 5.77 µM) and the minimum inhibitory concentration (MIC) was in the range of 2 to 8 µg/mL (≈ 5.77 to 23.1 µM). For the same compound, the “effect … (unspliced relative to total COX1 mRNA)” value in [7] was “moderate defects”. In addition, the IC50 in test [1] turned out to be 3.9 ± 0.1 µg/mL (≈ 11.2 µM).
With `FC(F)(F)c1cccc(CNc2nc(-c3ccccn3)nc3cc(Cl)ccc23)c1` [compound 18], in [3] (setting [11]), the Ki amounted to 20 ± 6 µM. Besides, the “drop in inhibitory activity relative to compound 16” value in test [3] (vs compound 16) is recorded as “four-fold”.
In the case of `Clc1cccc(CNc2nc(-c3ccccn3)nc3cc(Cl)ccc23)c1` [compound 19], the Ki in test [3] (setting [10]) was 1.4 ± 0.4 µM. Besides, the “effect … (unspliced relative to total COX1 mRNA)” value in [7] is listed as “remained unchanged”.
As to `CC(=O)c1ccc(-c2ccc3oc(C(=O)c4cc(O)c(O)c(O)c4)cc3c2)cc1` [intronistat A], the Ki in [8] was 2.1 ± 0.2 µM.
`O=C(NCCN1CCCC1)c1ccc2oc(C(=O)c3cc(O)c(O)c(O)c3)cc2c1` [intronistat B]: the inhibitory constant (Ki) in test [8] was 0.36 ± 0.02 µM. Besides, the “levels of unspliced vs total C. parapsilosis COX1 transcripts” value in [9] is 1.5 fold.

As a reminder, the IC50 is the concentration at which inhibition is half-maximal. The Ki is the dissociation constant of the complex between target and ligand, obtained from inhibition or displacement. As a reminder, the MIC is the least concentration at which growth counts as inhibited. Low readings indicate inhibition by little substance, high ones a need for much substance.
